Assay results from article PMC8131206 (Nature biomedical engineering, 2021).
Where no end group is shown, it is not given here.

Assays:
[1] = tested on: M. tuberculosis H37Ra (attenuated); settings: 96 h
M. smegmatis Mc^2 155 = settings: Mc^2 155, 48 h
S. aureus (MR) USA300 = settings: USA300, 24 h
S. aureus (MS) NRS72 = settings: MS) NRS72, 24 h
S. aureus (MS) Newman = settings: 24 h
S. mitis NCTC 12261 = settings: NCTC 12261, 24 h
E. faecalis ATCC 29212 = settings: ATCC 29212, 24 h
K. pneumoniae NCTC 9633 = settings: NCTC 9633, 24 h
E. coli DH5α = settings: 24 h
S. enterica CDC 6516–60 = settings: CDC 6516–60, 24 h
P. aeruginosa PAO1 = settings: PAO1, 24 h
A. baumannii 2208 = settings: 2208, 24 h
H. influenzae TD-4 = settings: TD-4, 24 h

## KRWWKWWRR-NH2 [AMP2]
[1]
  MIC: 10 µM
M. smegmatis Mc^2 155
  MIC: 20 µM
S. aureus (MR) USA300
  MIC: 80 µM
S. aureus (MS) NRS72
  MIC: 80 µM
S. aureus (MS) Newman
  MIC: 40 µM
S. mitis NCTC 12261
  MIC: >80 µM
E. faecalis ATCC 29212
  MIC: >80 µM
K. pneumoniae NCTC 9633
  MIC: 20 µM
E. coli DH5α
  MIC: 80 µM
S. enterica CDC 6516–60
  MIC: 80 µM
P. aeruginosa PAO1
  MIC: 20 µM
A. baumannii 2208
  MIC: 80 µM
H. influenzae TD-4
  MIC: 80 µM

## WKWLKKWIK-NH2 [AMP1]
[1]
  MIC: 20 µM
M. smegmatis Mc^2 155
  MIC: 20 µM
S. aureus (MR) USA300
  MIC: >80 µM
S. aureus (MS) NRS72
  MIC: >80 µM
S. aureus (MS) Newman
  MIC: 80 µM
S. mitis NCTC 12261
  MIC: 20 µM
E. faecalis ATCC 29212
  MIC: 80 µM
K. pneumoniae NCTC 9633
  MIC: 20 µM
E. coli DH5α
  MIC: >80 µM
S. enterica CDC 6516–60
  MIC: 40 µM
P. aeruginosa PAO1
  MIC: 10 µM
A. baumannii 2208
  MIC: 25 µM
H. influenzae TD-4
  MIC: 80 µM

## RRWWRWVVW-NH2 [AMP3]
[1]
  MIC: 20 µM
M. smegmatis Mc^2 155
  MIC: 20 µM
S. aureus (MR) USA300
  MIC: 20 µM
S. aureus (MS) NRS72
  MIC: 20 µM
S. aureus (MS) Newman
  MIC: 20 µM
E. faecalis ATCC 29212
  MIC: 80 µM
K. pneumoniae NCTC 9633
  MIC: 2.5 µM
E. coli DH5α
  MIC: >80 µM
S. enterica CDC 6516–60
  MIC: 80 µM
P. aeruginosa PAO1
  MIC: 80 µM
A. baumannii 2208
  MIC: 10 µM
